Series [1] concerns the target T1, aldose reductase (AR) (Homo sapiens, UniProt P15121).
T1 construct: purchased Prospec-TanyTechnogene Ltd. (Israel)
Kind of series: AR inhibition assay (NADPH absorbance decrease at 340 nm, DL-glyceraldehyde substrate). In kind it is biochemical. As to conditions: for IC50: mean ± SD (n = 3), NA = no activity. How it is done: AR was purchased from Prospec-TanyTechnogene Ltd. (Israel). AR activity was evaluated as previously described. Briefly, the reaction mixture was composed of enzyme solution ([…], 20 μL), NADPH (0.104 mmol·L^-1, 50 μL; Italian Roth, Italy), DL-glyceraldehyde (10 mmol·L^-1, 50 μL; Sigma, U.S.), buffer phosphate (0.1 mol·L^-1), and selected concentrations of test compounds. The reaction was initiated by the addition of DL-glyceraldehyde as the substrate, and PBS was used as the blank control. The use of NAPDH, in parallel to AR activity, was monitored at room temperature for 10 min at 40 s intervals at 340 nm in an EnSpire™ Multimode Plate Reader. […] All assays were performed in triplicate.

Series [2] addresses inducible nitric oxide synthase (iNOS) (Homo sapiens, UniProt P35228). Nature of the series: iNOS inhibition assay (Nitric Oxide Synthase Assay Kit, NO production). In kind it is biochemical. As to conditions: mean ± SD (n = 3); NA = no activity; read-out: IC50, inhibitory effect on iNOS activity. As for the experimental part: iNOS produces NO by catalyzing a reaction involving L-Arg and oxygen. Its activity was assessed by monitoring NO production using a Nitric Oxide Synthase Assay Kit (Nanjing Jiancheng Bioengineering Institute, China), which was developed based on the method of Fröhlich et al.. […] All assays were performed in triplicate.

Series [3] relates to human lens epithelial cells (HLECs; SRA 01/04). Kind of series: Cell viability (MTT) of HLECs treated with D-galactose. It is filed as cell-based. As to conditions: for protection of HLECs from apoptosis (concentration not given): D-galactose-induced, tested at 0.1, 0.5, 1.0 μg·mL^-1. How it is done: Human lens epithelial cells (HLECs; SRA 01/04) were obtained from Dr. Fu Shang, USDA HNRCA at Tufts University, Boston, MA, U.S. and Zhongshan Ophthalmic Center, Sun Yat-sen University, Guangzhou, P. R. China and cultured in minimal essential medium (MEM) supplemented with 20% fetal bovine serum (FBS) and a cocktail of Penicillin-Streptomycin at 37°C in a humid environment containing 5% CO2 [52]. Cells were harvested at 80% confluency by trypsinization, and then fresh culture medium was added to generate single-cell suspensions for use in cell viability assays. HLECs were then seeded in 96-well cell culture grade microplates at a density of 1 × 10^5·mL^-1. After 24 h of incubation, the cells were treated for 72 h with 250 mmol·L^-1 D-galactose with and without test compounds (0.1, 0.5, or 1.0 μg·mL^-1).
Cell viability was assessed using an MTT assay. After the treatments, 20 μL of 5 mg·mL^-1 MTT solution was added to each well, followed by incubation for 4 h at 37°C. The resulting formazan crystals were then dissolved in 150 μL DMSO and absorbance measured at 570 nm using an EnSpire™ Multimode Plate Reader. The results are presented as percentages of cell survival as compared to the untreated control group, and all assays were performed in triplicate.

Where [4] appears, read: read-out: IC50, inhibitory effect on AR activity.
Setting [5] is: compound at 1.0 μg·mL^-1, 250 mmol·L^-1 D-galactose, 72 h.
Setting [6] is: compound at 0.5 μg·mL^-1, 250 mmol·L^-1 D-galactose, 72 h.
The mark [7] stands for this setting: compound at 0.1 μg·mL^-1, 250 mmol·L^-1 D-galactose, 72 h.

Read-outs that look alike come from different tables or passages of the source.

On to `COc1cc(CCc2cc(Cl)ccc2O)ccc1O` [Compound 14e, 4-chloro-2-(4-hydroxy-3-methoxyphenethyl)phenol], for which the IC50 (as a rule, the concentration at which inhibition is half-maximal) in series [1] (setting [4]) amounted to 21.8 ± 5.47 µM.
As for `COc1cc(O)cc(CCc2ccc(O)c(OC)c2)c1` [Extractive gigantol, 4-[2-(3-hydroxy-5-methoxyphenyl)ethyl]-2-methoxyphenol, reference compound], the IC50 worked out at 2517 ± 10.3 µM in series [1] (setting [4]) and 32.2 ± 2.61 µM in series [2]. Moreover, in series [3], the “protection of HLECs from apoptosis (concentration not given)” value (“protection … (concentration not given)” below) is “protected HLECs from apoptosis”. For the same molecule, in series [3] (setting [5]), the “protection of HLECs from D-galactose-induced apoptosis” value is reported as “protected HLECs from apoptosis”.
Regarding `COc1cc(O)cc(CCc2cccc3ccccc23)c1` [Compound 10, 3-methoxy-5-(2-(naphthalen-1-yl)ethyl)phenol], the melting point (in general, the temperature, or range, at which the solid turns liquid) is 103.9 to 106.7 °C. Further, the IC50 in series [1] (setting [4]) amounted to 31.2 ± 1.51 µM. Also, in series [1] (more potent than 14f), the “potency in AR inhibition relative to synthetic gigantol (compound 14f)” value is reported as 9 fold. Moreover, in series [2], the IC50 is 1189 ± 3.31 µM. For the same molecule, in series [3] (250 mmol·L^-1 D-galactose, 72 h, MTT, compounds at 0.1, 0.5 or 1.0 μg·mL^-1, percentage of Con), the “cell survival (viability) of HLECs against D-galactose-induced apoptosis” value worked out at 72.26%. Also, the “protection … (concentration not given)” value in series [3] is “protected HLECs from apoptosis”. Also, the “protection of HLECs from D-galactose-induced apoptosis” value in series [3] (setting [6]) is “protected HLECs from apoptosis”.
As to `COc1cc(CCc2ccc(O)c(O)c2)ccc1O` [Compound 14c, 4-(4-hydroxy-3-methoxyphenethyl)benzene-1,2-diol], in series [1] (setting [4]), the IC50 came to 534 ± 5.44 µM.
Molecule `Oc1cc(O)cc(CCc2cc(O)cc(O)c2)c1` [Compound 5, 5,5'-(ethane-1,2-diyl)dibenzene-1,3-diol5,5'-(ethane-1,2-diyl)dibenzene-1,3-diol] registered a melting point of 245.9 to 248.1 °C. The IC50 in series [1] (setting [4]) was found to be 288.8 ± 2.16 µM. The IC50 in series [2] worked out at 432.6 ± 2.37 µM. Moreover, the “protection … (concentration not given)” value in series [3] is “protected HLECs from apoptosis”. The “protection of HLECs from D-galactose-induced apoptosis” value in series [3] (setting [6]) is recorded as “protected HLECs from apoptosis”.
In turn, `COc1ccc(CCNC(=O)Cc2ccc(O)cc2)cc1OC` [Compound 25, N-(3,4-dimethoxyphenethyl)-2-(4-hydroxyphenyl)acetamide] displayed a melting point of 151.7 to 153.2 °C. Moreover, the IC50 in series [1] (setting [4]) was 54.4 ± 2.39 µM.
As for `COc1cc(CCc2cc(OC)c(O)c(OC)c2)ccc1O` [Compound 14a, 4-(4-hydroxy-3-methoxyphenethyl)-2,6-dimethoxyphenol], the IC50 in series [1] (setting [4]) stood at 17.3 ± 1.72 µM.
For `COc1cc(O)cc(CCc2ccc(O)c(OC)c2)c1` [Compound 14f, 4-[2-(3-hydroxy-5-methoxyphenyl)ethyl]-2-methoxyphenol], the IC50 in series [1] (setting [4]) was determined as 176 ± 3.21 µM; in series [2], 680.1 ± 3.28 µM.
Consider `COc1cc(CCc2cc(OC)cc(OC)c2)cc(OC)c1` [Compound 4, 1,2-bis(3,5-dimethoxyphenyl)ethane], for which the melting point is 104.6 to 107.9 °C. The IC50 in series [1] (setting [4]) was 347 ± 3.74 µM.
`COc1ccc(CCNCc2ccc(O)cc2)cc1OC` [Compound 17b, 4-((3,4-dimethoxyphenethylamino)methyl)phenol] showed a melting point of 116.7 to 118.6 °C. Besides, in series [1] (IC50, inhibitory effect on AR activity), the IC50 turned out to be 174 ± 3.38 µM.
As to `COc1cc(CCc2ccc(O)c(OC)c2)cc(OC)c1` [Compound 14d, 4-(3,5-dimethoxyphenethyl)-2-methoxyphenol], the IC50 in series [1] (setting [4]) was 39.2 ± 2.13 µM.
For `COc1cc(CCc2cccc(OC)c2O)ccc1O` [Compound 14b, 4-(2-hydroxy-3-methoxyphenethyl)-2-methoxyphenol], the figures for the IC50 in series [1] (setting [4]) and in series [2] were 126 ± 1.3 µM and 433.6 ± 4.23 µM, respectively. For the same molecule, in series [3], the “protection … (concentration not given)” value is “protected HLECs from apoptosis”. Moreover, the “protection of HLECs from D-galactose-induced apoptosis” value in series [3] (setting [7]) is listed as “protected HLECs from apoptosis”.
Regarding `CN(C)c1ccc(CCc2cc(O)cc(O)c2)cc1` [Compound 8], the melting point lay in the range of 152.5 to 154.1 °C. The IC50 in series [1] (setting [4]) was found to be 513.4 ± 2.33 µM. Besides, the “protection … (concentration not given)” value in series [3] was “protected HLECs from apoptosis”. Further, the “protection of HLECs from D-galactose-induced apoptosis” value in series [3] (setting [5]) was “protected HLECs from apoptosis”.
Take `COc1ccc(CNc2nc3ccccc3s2)c(O)c1` [Compound 17c, 2-((benzo[d]thiazol-2-ylamino)methyl)-5-methoxyphenol]: the melting point was in the range of 184.3 to 185.7 °C. The IC50 in series [1] (setting [4]) amounted to 243 ± 5.67 µM. Besides, the “protection … (concentration not given)” value in series [3] was “protected HLECs from apoptosis”. For the same molecule, in series [3] (setting [7]), the “protection of HLECs from D-galactose-induced apoptosis” value was “protected HLECs from apoptosis”.
Regarding `Cc1ccc(S(=O)(=O)Nc2ccc(O)cc2)cc1` [Compound 23, N-(4-hydroxyphenyl)-4-methylbenzenesulfonamide], the IC50 in series [1] (setting [4]) is 5.02 ± 2.57 µM.
As for `Oc1cc(O)cc(CCCc2ccc(F)cc2)c1` [Compound 21, 5-(3-(4-fluorophenyl)propyl)benzene-1,3-diol], the IC50 in series [1] (setting [4]) turned out to be 556.3 ± 4.37 µM.

Values taken from PMC4627826, “Synthesis and Biological Evaluation of Novel Gigantol Derivatives as Potential Agents in Prevention of Diabetic Cataract” (PLoS ONE, 2015).
